The test system of assay [1] is platelets. The assay can be described thus: In vitro platelet aggregation (ADP-induced, washed platelets). The class given is cell-based. The conditions noted are these: Homo sapiens, washed platelets from healthy volunteers, agonist giving 60-70% aggregation, % inhibition of control ADP response. As for the experimental part:
Platelet aggregation studies were performed according to a published method (Bednar, B., Condra, C., Gould, R. J., and Connolly, T. M., Throm. Res., 77:453-463 (1995). Platelet-rich plasma (PRP) concentrates prepared from healthy volunteers who were aspirin free for at least 7 days by venipuncture using ACD-A as anticoagulant was purchased from Biological Specialties, Inc. (Colmar, Pa.). PRP was centrifuged at 730 g for 15 min. The platelet pellet was washed twice in CGS buffer (13 mM sodium citrate, 30 mM glucose, 120 mM NaCl, pH 6.5) containing 1 μ/ml apyrase (grade V, Sigma-Aldrich, St. Louis, Mo.), 1 mM EGTA, and resuspended in Tyrode's buffer (140 mM NaCl, 2.7 mM KCl, 12 mM NaHCO3, 0.76 mM Na2HPO4, 5.5 mM dextrose, 5.0 mM Hepes, 0.2% BSA, pH 7.4). The platelets were diluted to 3×10^8 platelets/ml and kept >45 min at 37° C. before use. 105 μl of washed platelets, 2 mM CaCl2 and […] of fibrinogen were added to a 96-well microliter plate.
Platelet aggregation was initiated by the addition of serial concentrations of ADP (BioData Corp. Horsham, Pa.). Buffer was added to one set of control wells. The assay plate was stirred constantly and intermittently placed in a microplate reader (Softmax, Molecular Devices, Menlo Park, Calif.) to read optical density (650 nm) at 0 and 5 minutes after the addition of the compound solutions. Aggregation was calculated as the decrease in optical density between the time 0- and 5-min measurements and expressed as % of aggregation. For the inhibition assay, platelet aggregation was conducted as described above except for compound additions. Test compounds were prepared in 100% DMSO and stored.
On the day of the assay, test compounds were diluted in the buffer containing 3% of DMSO as a 10× working solution. 15 μl of compound solutions were added to 105 μl of platelets 5 min prior to the addition of CaCl2 and fibrinogen.

Assay [2] addresses T1, P2Y12 receptor (Homo sapiens, UniProt Q9H244).
T1 construct: expressed in transfected cells
The assay can be described thus: Whole cell receptor binding assay, 2-MeS[3H]-ADP. The conditions noted are these: HEK 293 cells stably transfected with P2Y12; 2-MeS[3H]-ADP 3 nM; 30 min at 37° C.; read-out: Inhibition of Receptor Binding (IC50 μM). How it is done:
A whole cell-binding assay for 2-MeS [^3H]-ADP (Custom synthesized by Amersham BioScience, Piscataway, N.J.) to the P2Y12 receptor was performed.
A P2Y12 cDNA containing hygromycin resistant gene was transfected in HEK 293 cells. A stable cell line was obtained by a cloning selection method. The cells were cultured in DMEM supplemented with 10% FBS and 1× of p/s.
On the day of the assay, the cells were harvested and resuspended in 0.25% BSA-DMEM and adjusted to a cell concentration of 1.6×10^6/ml. 15 μl of each compound was mixed with 120 μl of cell suspension in 96 well assay plates and incubated for 5 min prior to the addition of the radio-labeled ligand 2-MeS[^3H]-ADP (3 nM final in 0.25% BSA-DMEM) or unlabeled […] (for non-specific binding). The reaction was then incubated for 30 min at 37° C. and stopped by adding cold DMEM. The labeled and unlabeled cells were separated by a filtration method using a Packard Filtermate 196 on to the unfilter-96 GF/B plate. The plates were dyed in a 37° C. oven for 1-2 hours and 50 μl of MicroScint-20 (PerkinElmer) was added to each well. The radioactivity was measured using a TOPCOUNT beta counter (Packard). The percent inhibition for each compound was calculated by the change in radioactivity as a % inhibition of the control to obtain an IC50, as shown in Table 2.

For assay [3], the target named is T2, ADP P2Y12 receptor (Homo sapiens, UniProt Q9H244).
T2 construct: expressed in transfected cells
In words: FLIPR calcium assay transducing Gi-coupled signaling to the Gq pathway (inhibition of ADP-induced calcium mobilization). The class given is cell-based. The conditions noted are these: HEK 293 cells co-transfected with P2Y12 and Gqi5, ADP at EC60-70 dose. From the text: A FLIPR Calcium Assay Transducing Gi-Coupled Signaling to the Gq Pathway
The ADP P2Y12 subtype is a Gi coupled GPCR, which mediates inhibition of adenylate cyclase leading to decreased cAMP while Gq proteins primarily activate phospholipase C, which stimulates inositol-1,4,5-triphosphate (IP3) formation and a subsequent increase in intracellular Ca^2+ concentration, which can be easily measured by FLIPR. Prior to the development of a method to convert a Gi coupled GPCR signaling to a Gq coupled GPCR signaling, a significant barrier existed for the functional testing and screening of Gi coupled GPCRs. One popular method, GTPγS migration, is slow, produces a small signal and generates radioactive waste. The discovery that a small switch in the amino acid sequence in the Gi protein could convert it to a protein mediating a Gq coupled response has led to the development of robust, high throughput assays for this valuable receptor subtype.
The FLIPR-based HTS assay transducing the Gi signaling to the Gq pathway is described below.
pcDNA3hygroP2Y12 containing a hygromycin resistance gene and pLEC1-Gqi5-HA containing a neomycin resistance gene (licensed from Molecular Devices, Sunnyvale, Calif.) were co-transfected into Human embryonic kidney (HEK) 293 cells with SuperFect (Qiagen, Valencia, Calif.). Cell clones were selected in the presence of 600 μg/ml hygromycin B (Life Technologies, Carlsbad, Calif.) and 1 mg/ml of G418 (Mediatech, Herndon, Va.). Drug resistant colonies were picked and screened by FLIPR and the gene expression was further confirmed by RT-PCR. Positive clones were maintained in growth medium (DMEM supplemented with 10% FBS, 1× p/s) containing 400 μg/ml of G418 and 200 μg/ml of hygromycin.
The day before the assay, cells are seeded in clear, flat-bottom black-wall, tissue culture treated polystyrene 96- or 384-well plates and incubated at 37° C., 5% CO2. 50 μl of complete dye loading solution (FLIPR Calcium Assay Kit, Molecular Devices) was added to each well containing 100 μl of culture media. The cells were incubated for at least 30 min at 37° C., in 5% CO2 before initiating the assay on the FLIPR. The agonist effect of ADP was tested and EC50 was determined prior to compound testing. The EC60-70 dose was used.
The antagonist compounds were prepared at 4× and the agonists were diluted at 5× the concentration desired in the test wells, and then aliquoted into the sample plates. The sample plates and the cell plate were placed in the FLIPR assay chamber. A first addition (50 μl) was made at the start of reading and a second addition (50 μl) was made after 5 min of reading. Raw fluorescence data was exported for each well and tabulated versus time within an ASCII file. Data was then imported into Excel and the peak response over the basal level was determined. The percent inhibition for each compound was calculated by the change in fluorescent density as a % inhibition of the control ADP response to obtain an IC50, as shown in Table 1 (wherein N/A means Not Applicable).

The structures appear in SMILES notation.

The term IC50 denotes the midpoint of a concentration-inhibition curve.

T2 sequence (Q9H244 whole entry): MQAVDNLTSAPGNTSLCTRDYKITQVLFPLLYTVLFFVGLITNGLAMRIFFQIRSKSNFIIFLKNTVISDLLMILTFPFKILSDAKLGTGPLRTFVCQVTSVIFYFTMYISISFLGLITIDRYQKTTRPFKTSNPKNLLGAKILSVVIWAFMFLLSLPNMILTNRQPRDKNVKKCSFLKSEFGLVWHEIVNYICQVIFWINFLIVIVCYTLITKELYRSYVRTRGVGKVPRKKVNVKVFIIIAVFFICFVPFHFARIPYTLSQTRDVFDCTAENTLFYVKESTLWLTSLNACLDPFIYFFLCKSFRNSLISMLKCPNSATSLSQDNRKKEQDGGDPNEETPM
T1 sequence (Q9H244 whole entry): as above

On to `CCCSc1nc(N[C@@H]2C[C@H]2c2ccccc2)c2nnn([C@@H]3C[C@H](Cn4ncnn4)[C@@H](O)[C@H]3O)c2n1` (mixture of isomers) [Cpd 3, (1R,2S,3R,5R)-3-{7-[(1RS,2SR)-2-phenyl-cyclopropylamino]-5-propylsulfanyl-[1,2,3]triazolo[4,5-d]pyrimidin-3-yl}-5-tetrazol-2-ylmethyl-cyclopentane-1,2-diol], for which the IC50 was determined as 1.24 µM in assay [1], 0.148 µM in assay [2] and 0.595 µM in assay [3].
In the case of `CCCSc1nc(NCCSC)c2nnn([C@@H]3C[C@H](c4nnc(C)[nH]4)[C@@H](O)[C@H]3O)c2n1` [Cpd 19, (1R,2S,3R,5R)-3-[7-(2-methylsulfanyl-ethylamino)-5-propylsulfanyl-[1,2,3]triazolo[4,5-d]pyrimidin-3-yl]-5-(5-methyl-4H-[1,2,4]triazol-3-yl)-cyclopentane-1,2-diol], the values for the IC50 in assay [1], in assay [2] and in assay [3] were greater than 30 µM, 5.09 µM and greater than 30 µM, respectively.
In the case of `CCCSc1nc(N[C@@H]2C[C@H]2c2ccccc2)c2nnn([C@@H]3C[C@H](Cn4cnnn4)[C@@H](O)[C@H]3O)c2n1` (mixture of isomers) [Cpd 4, (1R,2S,3R,5R)-3-{7-[(1RS,2SR)-2-phenyl-cyclopropylamino]-5-propylsulfanyl-[1,2,3]triazolo[4,5-d]pyrimidin-3-yl}-5-tetrazol-1-ylmethyl-cyclopentane-1,2-diol], the concentration for half-maximal inhibition (IC50) in assay [1] was 1.15 µM; in assay [2] it was 0.371 µM; in assay [3], 0.799 µM.
For `CCCCNc1nc(SCCC)nc2c1nnn2[C@@H]1C[C@H](c2nnc(C)[nH]2)[C@@H](O)[C@H]1O` [Cpd 13, (1R,2S,3R,5R)-3-(7-butylamino-5-propylsulfanyl-[1,2,3]triazolo[4,5-d]pyrimidin-3-yl)-5-(5-methyl-4H-[1,2,4]triazol-3-yl)-cyclopentane-1,2-diol] the same measures were 1.39 µM, 2.16 µM and 2.17 µM.
In the case of `CCCSc1nc(N[C@@H]2C[C@H]2c2ccccc2)c2nnn([C@@H]3C[C@H](Cn4ccnn4)[C@@H](O)[C@H]3O)c2n1` (mixture of isomers) [Cpd 7, (1R,2S,3R,5R)-3-{7-[(1RS,2SR)-2-phenyl-cyclopropylamino]-5-propylsulfanyl-[1,2,3]triazolo[4,5-d]pyrimidin-3-yl}-5-[1,2,3]triazol-1-ylmethyl-cyclopentane-1,2-diol], the IC50 in assay [1] worked out at 0.333 µM; in assay [2] it was 0.134 µM; in assay [3], 0.507 µM.
Consider `CCCCNc1nc(SCCC)nc2c1nnn2[C@@H]1C[C@H](C2=NCCN2)[C@@H](O)[C@H]1O` [Cpd 11, (1R,2S,3R,5R)-3-(7-butylamino-5-propylsulfanyl-[1,2,3]triazolo[4,5-d]pyrimidin-3-yl)-5-(4,5-dihydro-1H-imidazol-2-yl)-cyclopentane-1,2-diol], for which the IC50 in assay [1] was greater than 30 µM; in assay [2] it was 4.61 µM; in assay [3] it was greater than 30 µM.
`CCCSc1nc(N[C@@H]2C[C@H]2c2ccccc2)c2nnn([C@@H]3C[C@H](Cn4ccnc4)[C@@H](O)[C@H]3O)c2n1` (mixture of isomers) [Cpd 5, (1S,2R,3R,5R)-3-imidazol-1-ylmethyl-5-{7-[(1RS,2SR)-2-phenyl-cyclopropylamino]-5-propylsulfanyl-[1,2,3]triazolo[4,5-d]pyrimidin-3-yl}-cyclopentane-1,2-diol]: the IC50 in assay [1] turned out to be 0.529 µM; in assay [2], 0.26 µM; in assay [3] it was 0.805 µM.
In the case of `CCCCNc1nc(SCCC)nc2c1nnn2[C@@H]1C[C@H](c2nnc[nH]2)[C@@H](O)[C@H]1O` [Cpd 20, (1R,2S,3R,5R)-3-(7-butylamino-5-propylsulfanyl-[1,2,3]triazolo[4,5-d]pyrimidin-3-yl)-5-(4H-[1,2,4]triazol-3-yl)-cyclopentane-1,2-diol], the figures for the IC50 in assay [1], in assay [2] and in assay [3] were 0.198 µM, 0.422 µM and 0.765 µM, respectively.
On the same counts, the results for `CCCSc1nc(NC[C@@H]2CCCO2)c2nnn([C@@H]3C[C@H](c4nnn[nH]4)[C@@H](O)[C@H]3O)c2n1` [Cpd 9, (1R,2S,3R,5R)-3-(5-propylsulfanyl-7-{[(2S)-tetrahydro-furan-2-ylmethyl]-amino}-[1,2,3]triazolo[4,5-d]pyrimidin-3-yl)-5-(1H-tetrazol-5-yl)-cyclopentane-1,2-diol] are 4.37 µM, 0.237 µM and 2.02 µM.
On the same counts, the results for `CCCSc1nc(NC[C@H](C)c2ccccc2)c2nnn([C@@H]3C[C@H](c4nnc(C)[nH]4)[C@@H](O)[C@H]3O)c2n1` [Cpd 17, (1S,2R,3R,5R)-3-(5-methyl-4H-[1,2,4]triazol-3-yl)-5-{7-[(2R)-2-phenylpropylamino]-5-propylsulfanyl-[1,2,3]triazolo[4,5-d]pyrimidin-3-yl}-cyclopentane-1,2-diol] are greater than 30 µM, 9.59 µM and greater than 30 µM.
On the same counts, the results for `CCCSc1nc(NCCc2cccs2)c2nnn([C@@H]3C[C@H](c4nnc(C)[nH]4)[C@@H](O)[C@H]3O)c2n1` [Cpd 15, (1S,2R,3R,5R)-3-(5-methyl-4H-[1,2,4]triazol-3-yl)-5-[5-propylsulfanyl-7-(2-thiophen-2-yl-ethylamino)-[1,2,3]triazolo[4,5-d]pyrimidin-3-yl]-cyclopentane-1,2-diol] are 6.47 µM, 3.74 µM and 10.4 µM.

These data come from patent publication US7566722B2, “Triazolopyrimidine derivatives as ADP P2Y12 receptor antagonists” (Janssen Pharmaceutica, N.V., priority 2006, dated 2009).
